By MIC is commonly meant the lowest concentration that inhibits growth of the organism.

This note sets out measurements from ChEMBL document CHEMBL5356971, “Optimization of the Antibacterial Spectrum and the Developability Profile of the Novel-Class Natural Product Corramycin” (J Med Chem, 2023).

SMILES strings stand for the structures. Some results are limits rather than exact numbers.

For data set [1], the system named is Klebsiella pneumoniae. Put plainly: Antibacterial activity against wild type Klebsiella pneumoniae ATCC 13883 assessed as reduction in microbial growth incubated for 20 to 22 hrs by CLSI based analysis. It is filed as functional. The note with it: time 20-22 hrs.
Data set [2] is described as follows: Metabolic stability in mouse kidney assessed as parent compound remaining measured after 1 hrs by UPLC-MS analysis. It is filed as ADME, tissue-based. The following applies: read-out: Stability.
The subject of data set [3] is Klebsiella pneumoniae. In words: Antibacterial activity against Klebsiella pneumoniae ATCC 13883 harboring SbmA assessed as reduction in microbial growth incubated for 20 to 22 hrs by CLSI based analysis. It counts as functional. The following applies: time 20-22 hrs.
For data set [4], the system named is Escherichia coli. Put plainly: Antibacterial activity against Escherichia coli ATCC 35218 harboring SbmA assessed as reduction in microbial growth incubated for 20 to 22 hrs by CLSI based analysis. It is filed as functional. The note with it: time 20-22 hrs.
The test system of data set [5] is Escherichia coli. In words: Antibacterial activity against wild type Escherichia coli ATCC 35218 assessed as reduction in microbial growth incubated for 20 to 22 hrs by CLSI based analysis. It is filed as functional. The following applies: time 20-22 hrs.
A short description of data set [6]: Metabolic stability in mouse lung assessed as parent compound remaining measured after 4 hrs by UPLC-MS analysis. The note with it: mouse lung, read-out: Stability. It is filed as ADME, tissue-based.
A short description of data set [7]: Metabolic stability in mouse lung assessed as parent compound remaining measured after 1 hrs by UPLC-MS analysis. It is filed as ADME, tissue-based. The note with it: mouse lung, read-out: Stability.
The next data set has as its system Acinetobacter baumannii. Put plainly: Antibacterial activity against wild type Acinetobacter baumannii ATCC 19606 assessed as reduction in microbial growth incubated for 20 to 22 hrs by CLSI based analysis. It is filed as functional. The following applies: time 20-22 hrs.
The nature of data set [8]: Metabolic stability in mouse kidney assessed as parent compound remaining measured after 4 hrs by UPLC-MS analysis. It counts as ADME, tissue-based. The note with it: read-out: Stability.
Data set [9] has as its system Escherichia coli. In words: Antibacterial activity against Escherichia coli ATCC 35218 assessed as reduction in microbial growth incubated for 20 to 22 hrs by CLSI based analysis. It counts as functional. The following applies: time 20-22 hrs.

As for `CO[C@@H](CNC(=O)[C@H](NC(=O)[C@H](O)[C@H](C)O)[C@H](O)c1cncn1C)[C@H](O)[C@H](O)C(=O)N(C)[C@@H](Cc1ccccc1)C(=O)NCC(=O)N[C@H](C(=O)N[C@@H](CO)C(=O)N[C@H](C(=O)N[C@@H](CC(C)C)C(=O)N[C@@H](CO)C(=O)N[C@@H](CCC(=O)NCc1cc(=O)c(O)cn1O)C(=O)O)C(C)(C)O)C(C)(C)O`, the minimum inhibitory concentration (MIC) in the data set with Klebsiella pneumoniae [1] came to 0.25 µg/mL; with Klebsiella pneumoniae [3], 8 µg/mL; in the data set with Escherichia coli [4], 0.12 µg/mL; in the data set with Escherichia coli [5], 0.03 µg/mL; in the data set with Acinetobacter baumannii it was 0.5 µg/mL. Moreover, the remaining at 1 h in data set [2] was found to be 22%; in [7] it was 1%. Moreover, the remaining at 4 h in data set [6] and in [8] was 0% in each case.
In the case of `CO[C@@H](CNC(=O)[C@H](NC(=O)[C@H](O)[C@H](C)O)[C@H](O)c1cncn1C)[C@H](O)[C@H](O)C(=O)N(C)[C@@H](Cc1ccccc1)C(=O)NCC(=O)N[C@H](C(=O)N[C@@H](CO)C(=O)N[C@H](C(=O)N[C@H](C(=O)N[C@@H](CO)C(=O)N[C@@H](CN)C(=O)NCc1cc(=O)c(O)cn1O)C(C)(C)C)C(C)(C)O)C(C)(C)O`, the minimal inhibitory concentration (MIC) in the data set on Klebsiella pneumoniae [1] is 0.25 µg/mL; with Klebsiella pneumoniae [3], over 32 µg/mL; in the data set on Escherichia coli [4], 4 µg/mL; in the data set with Escherichia coli [5], 0.02 µg/mL; in the data set with Acinetobacter baumannii it was 0.25 µg/mL. For the same compound, the remaining at 1 h is 93% in data set [2] and 87% in data set [7]. The remaining at 4 h in [6] came to 75%; in data set [8], 83%.
As for `CO[C@@H](CNC(=O)[C@H](NC(=O)[C@H](O)[C@H](C)O)[C@H](O)c1cncn1C)[C@H](O)[C@H](O)C(=O)N(C)[C@@H](Cc1ccc(F)cc1)C(=O)NCC(=O)N[C@H](C(=O)N[C@@H](CO)C(=O)N[C@H](C(=O)N[C@H](C(=O)N[C@@H](CO)C(=O)NCc1cccc(O)c1O)C(C)(C)C)C(C)(C)O)C(C)(C)O`, the MIC worked out at 0.5 µg/mL in the data set on Klebsiella pneumoniae [1], 0.06 µg/mL in the data set on Escherichia coli [5] and 0.5 µg/mL in the data set with Acinetobacter baumannii. Further, the remaining at 1 h in data set [2] worked out at 11%; in [7], 0%. The remaining at 4 h in [6] and in data set [8] was 0% in each case.
On to `CO[C@@H](CNC(=O)[C@H](NC(=O)[C@H](O)[C@H](C)O)[C@H](O)c1cncn1C)[C@H](O)[C@H](O)C(=O)N(C)[C@@H](Cc1ccccc1)C(=O)NCC(=O)N[C@H](C(=O)N[C@@H](CO)C(=O)O)C(C)(C)O`, for which the MIC in the data set on Escherichia coli [9] was over 64 µg/mL.
For the compound `CO[C@@H](CNC(=O)[C@H](NC(=O)[C@H](O)[C@H](C)O)[C@H](O)c1cncn1C)[C@H](O)[C@H](O)C(=O)N(C)[C@@H](Cc1ccc(F)cc1)C(=O)NCC(=O)N[C@H](C(=O)N[C@@H](CO)C(=O)N[C@H](C(=O)N[C@H](C(=O)N[C@@H](CO)C(=O)NCc1ccc(O)c(O)c1)C(C)(C)C)C(C)(C)O)C(C)(C)O`, the MIC was determined as 0.25 µg/mL in the data set with Klebsiella pneumoniae [1], 0.03 µg/mL in the data set with Escherichia coli [5] and 0.5 µg/mL with Acinetobacter baumannii. The remaining at 1 h in data set [2] turned out to be 6%; in data set [7], 0%. In addition, the remaining at 4 h in data set [6] and in [8] was 0% each time.
For the compound `CO[C@@H](CNC(=O)[C@H](NC(=O)[C@H](O)[C@H](C)O)[C@H](O)c1cncn1C)[C@H](O)[C@H](O)C(=O)N(C)[C@@H](Cc1ccccc1)C(=O)O`, the minimal inhibitory concentration (MIC) in the data set on Escherichia coli [9] was over 64 µg/mL.
The same measure, in the same setting: to `CO[C@@H](CNC(=O)[C@H](NC(=O)[C@H](O)[C@H](C)O)[C@H](O)c1cncn1C)[C@H](O)[C@H](O)C(=O)N(C)[C@@H](Cc1ccccc1)C(=O)NCC(=O)N[C@H](C(=O)N[C@@H](CO)C(=O)N[C@H](C(=O)N[C@@H](CC(C)C)C(=O)O)C(C)(C)O)C(C)(C)O` belongs 32 µg/mL; to `CO[C@@H](CNC(=O)[C@H](NC(=O)[C@H](O)[C@H](C)O)[C@H](O)c1cncn1C)[C@H](O)[C@H](O)C(=O)N(C)[C@@H](Cc1ccccc1)C(=O)NCC(=O)N[C@H](C(=O)N[C@@H](CO)C(=O)N[C@H](C(=O)O)C(C)(C)O)C(C)(C)O`, over 64 µg/mL.
